Measured values from patent US4695569A, “Bicyclic heterocyclyl containing N-(bicyclic heterocyclyl)-4-piperidinamines” (Janssen Pharmaceutica N.V., priority 1987, dated 1987).
Counter-ions that a name gives are not always drawn. Like-named read-outs stand apart in the source and are kept apart here.

How the values were obtained:
[1] = tested on: serotonin; assay: Antagonistic activity on the effects of serotonin in the gastric lesion test (lesions induced by compound 48/80); format: in vivo, rat (male, Wistar inbred strain)
Description: The compounds of formula (I) and the pharmaceutically acceptable acid addition salts thereof are also potent serotonin-antagonists. The potency of the subject compounds as serotonin-antagonists is clearly evidenced by the results obtained in the following tests wherein the antagonistic activity of the subject compounds on the effect of serotonin is examined.
Antagonistic activity on the effects of serotonin in the gastric lesion test
Comound 48/80 (a mixture of oligomers obtained by condensation of 4-methoxy-N-methylbenzeneethanamine and formaldehyde) is a potent releaser of vasoactive amines from endogenous stores such as, for example, histamine and serotonin. […] The shock, followed by dead, can be avoided if the rats are pretreated with a classical H 1 antagonist.
Male rats of a Wistar inbred strain, weighing 220-250 g, were starved overnight, water being available ad libitum. The test compounds were administered orally as a solution or as a suspension in aqueous medium. A control rat and a "blank" rat received the test compound. One hour later 5-[4-(diphenylmethyl)-1-piperazinylmethyl]-1-methyl-1H-benzimidazole-2-methanol was administered subcutaneously to all rats at the dose of 2.5 mg/kg.
Four hours after the intravenous injection of compound 48/80, the rats were decapitated and the stomachs were removed. Subsequently the stomachs ere inspected for distension and contents (blood, fluid, food) and thoroughly rinsed. The macroscopic lesions were scored from 0 to +++, 0 corresponding to complete absence of visible lesions and the highest score corresponding to reddish rough patches covering more than half the glandular area.

[2] = tested on: compound 48/80-induced lethality; assay: Protection of rats from compound 48/80-induced lethality; format: in vivo, rat (male, inbred Wistar strain); conditions: Rattus norvegicus, 4 h, read-out: Compound 48/80 lethality test in rats-ED50
Procedure: Protection of rats from compound 48/80-induced lethality
The protection from compound 48/80-induced lethal circulatory collapse appears to be a simple way of evaluating quantitatively the antihistaminic activity of test compounds. Male rats of an inbred Wistar strain, weighing 240-260 g were used in the experiment. After overnight starvation the rats were transferred to conditioned laboratories (temp.=21±1° C., relative humidity=65±5%).
The rats were treated subcutaneously or orally with a test compound or with the solvent (NaCl solution, 0.9%). […] Survival after 4 hours is therefore considered to be a safe criterion of a protective effect of drug administration.
The ED50 -values of the compounds of formula (I) are listed in the first column of table 1. Said ED50 -values are the values in mg/kg body weight at which the tested compounds protect 50% of the tested animals against compound 48/80-induced lethality.

[3] = Rattus norvegicus, po, 4 h, read-out: gastric lesion test ED50 (distension of the stomach and lesions in the glandular area completely absent in 50% of rats)
[4] = Rattus norvegicus, po, 4 h; read-out: gastric lesion test ED50 (distension of the stomach and lesions in the glandular area completely absent in 50% of rats)

Structure (SMILES)	ED50 [1, 3]	ED50 [2]	ED50 [1, 4]
Fc1ccc(Cn2c(NC3CCN(Cc4cn5cccnc5n4)CC3)nc3ccccc32)cc1 [Compound 40]	0.16 mg/kg	0.16 mg/kg	
Fc1ccc(Cn2c(NC3CCN(CCn4c(=S)[nH]c5cncnc54)CC3)nc3ccccc32)cc1 [Compound 143, 9-[2-[4-[[1-[(4-fluorophenyl)methyl]-1H-benzimidazol-2-yl]amino]-1-piperidinyl]ethyl]-7,9-dihydro-8H-purine-8-thione trihydrochloride.dihydrate]		0.31 mg/kg	0.63 mg/kg
Fc1ccc(Cn2c(NC3CCN(CCNc4ncnc5[nH]cnc45)CC3)nc3ccccc32)cc1 [Compound 97]		0.08 mg/kg	0.04 mg/kg
Cn1c(=S)n(CCN2CCC(Nc3nc4ccccc4n3Cc3ccco3)CC2)c(=O)c2ccccc21 [Compound 129, 3-[2-[4-[[1-(2-furanylmethyl)-1H-benzimidazol-2-yl]amino]-1-piperidinyl]ethyl]-2,3-dihydro-1-methyl-2-thioxo-4(1H)-quinazolinone]		0.08 mg/kg	0.31 mg/kg
Fc1ccc(Cn2c(NC3CCN(CCNc4nc5cnccc5[nH]4)CC3)nc3ccccc32)cc1 [Compound 109]		0.04 mg/kg	0.04 mg/kg
c1coc(Cn2c(NC3CCN(CCNc4nc5cnccc5[nH]4)CC3)nc3cccnc32)c1 [Compound 119]		0.04 mg/kg	0.63 mg/kg
Fc1ccc(Cn2c(NC3CCN(CCn4c(=S)[nH]c5ccccc54)CC3)nc3ccccc32)cc1 [Compound 142, 1-[2-[4-[[1-[(4-fluorophenyl)methyl]-1H-benzimidazole-2-yl]amino]-1-piperidinyl]ethyl]-1,3-dihydro-2H-benzimidazole-2-thione]		0.16 mg/kg	0.63 mg/kg
Cn1c(NCCN2CCC(Nc3nc4ccccc4n3Cc3ccc(F)cc3)CC2)nc2cnccc21.O [Compound 108, N-[2-[4-[[1-[(4-fluorophenyl)methyl]-1H-benzimidazol-2-yl]amino]-1-piperidinyl]ethyl]-1-methyl-1H-imidazo[4,5-c]pyridin-2-amine monohydrate]		0.04 mg/kg	0.16 mg/kg
Fc1ccc(Cn2c(NC3CCN(CCCCNc4nc5cnccc5[nH]4)CC3)nc3ccccc32)cc1 [Compound 121, N-[4-[4-[[1-[(4-fluorophenyl)methyl]-1H-benzimidazol-2-yl]amino]-1-piperidinyl]butyl]-1H-imidazo[4,5-c]pyridin-2-amine]		0.02 mg/kg	0.02 mg/kg
Fc1ccc(Cn2c(NC3CCN(CCNc4nc5cnccc5[nH]4)CC3)nc3ncccc32)cc1 [Compound 112]		0.02 mg/kg	0.16 mg/kg
c1ccc(Cn2c(NC3CCN(CCNc4nc5cnccc5[nH]4)CC3)nc3ccccc32)nc1 [Compound 115]	0.16 mg/kg	0.02 mg/kg	
OCCn1cnc2c(NCCN3CCC(Nc4nc5ccccc5n4Cc4ccc(F)cc4)CC3)ncnc21 [Compound 93, 6-[[2-[4-[[1-[(4-fluorophenyl)methyl]-1H-benzimidazol-2-yl]amino]-1-piperidinyl]ethyl]amino]-9H-purine-9-ethanol]		0.08 mg/kg	0.16 mg/kg
Cc1ccn2c(=O)c(CCN3CCC(Nc4nc5cccnc5n4Cc4ccco4)CC3)c(C)nc2c1 [Compound 74]		0.04 mg/kg	0.16 mg/kg
Cc1cc(C)n2c(=O)c(CCN3CCC(Nc4nc5cccnc5n4Cc4ccco4)CC3)c(C)nc2c1 [Compound 77]		0.16 mg/kg	0.31 mg/kg
Cc1nc2n(c(=O)c1CCN1CCC(Nc3nc4cccnc4n3Cc3ccc(F)cc3)CC1)CCCC2 [Compound 61]		0.04 mg/kg	0.31 mg/kg
Cc1nc2n(c(=O)c1CCN1CCC(Nc3nc4ccccc4n3Cc3ccc(F)cc3)CC1)CCS2 [Compound 17]		0.31 mg/kg	0.63 mg/kg
Fc1ccc(Cn2c(NC3CCN(Cc4cn5ccccc5n4)CC3)nc3ccccc32)cc1 [Compound 41]		0.16 mg/kg	0.63 mg/kg
Cc1nc2n(c(=O)c1CCN1CCC(Nc3nc4ccccc4n3Cc3ccco3)CC1)CCCS2 [Compound 13]		0.02 mg/kg	0.08 mg/kg
Cc1nc2n(c(=O)c1CCN1CCC(Nc3nc4cccnc4n3Cc3ccco3)CC1)C(C)CC(C)C2 (centres unmarked) [Compound 63]		0.08 mg/kg	0.63 mg/kg
Fc1ccc(Cn2c(NC3CCN(CCc4cn5ccsc5n4)CC3)nc3ccccc32)cc1 [Compound 149, 1-[(4-fluorophenyl)methyl]-N-[1-[2-(imidazo[2,1-b]thiazol-6-yl)ethyl]-4-piperidinyl]-1H-benzimidazol-2-amine]		0.08 mg/kg	0.08 mg/kg

Structure (SMILES)	ED50 [1, 3]	ED50 [2]	ED50 [1, 4]
Fc1ccc(Cn2c(NC3CCN(CCNc4nc5ncccc5[nH]4)CC3)nc3ccccc32)cc1 [Compound 110]		0.16 mg/kg	0.31 mg/kg
Fc1ccc(Cn2c(NC3CCN(CCNc4ncnc5c4ncn5Cc4ccccc4)CC3)nc3ccccc32)cc1 [Compound 95]		0.16 mg/kg	0.63 mg/kg
Fc1ccc(Cn2c(NC3CCN(CCCNc4nc5cnccc5[nH]4)CC3)nc3ccccc32)cc1 [Compound 122, N-[3-[4-[[1-[(4-fluorophenyl)methyl]-1H-benzimidazol-2-yl]amino]-1-piperidinyl]propyl]-1H-imidazo[4,5-c]pyridin-2-amine ethanedioate(2:7)]		0.02 mg/kg	0.63 mg/kg
Cn1cnc2c1c(=O)n(CCN1CCC(Nc3nc4ccccc4n3Cc3ccco3)CC1)c(=O)n2C [Compound 11]		0.08 mg/kg	0.04 mg/kg
Cn1cnc2c1c(=O)n(CCN1CCC(Nc3nc4cccnc4n3Cc3ccc(F)cc3)CC1)c(=O)n2C [Compound 12]	0.31 mg/kg	0.16 mg/kg	
Cc1nc2ccccn2c(=O)c1CCN1CCC(Nc2nc3ccccc3n2Cc2ccc(F)cc2)CC1 [Compound 4]	0.31 mg/kg	0.16 mg/kg	
Cc1nc2ccccn2c(=O)c1CCN1CCC(Nc2nc3ccccc3n2Cc2cscn2)CC1 [Compound 19]		0.08 mg/kg	0.01 mg/kg
Cc1nc2sccn2c(=O)c1CCN1CCC(Nc2nc3cccnc3n2Cc2ccco2)CC1 [Compound 28]	0.16 mg/kg	0.04 mg/kg	
Cn1cnc2c1c(=O)n(CCN1CCC(Nc3nc4ccccc4n3Cc3ccc(F)cc3)CC1)c(=O)n2C [Compound 8]	0.63 mg/kg	0.16 mg/kg	
Fc1ccc(Cn2c(NC3CCN(CCc4cn5ccccc5n4)CC3)nc3ccccc32)cc1 [Compound 150, 1-[(4-fluorophenyl)methyl]-N-[1-[2-(imidazo[1,2-a]pyridin-2-yl)ethyl]-4-piperidinyl]-1H-benzimidazol-2-amine]		0.08 mg/kg	0.63 mg/kg
Cc1nc2n(c(=O)c1CCN1CCC(Nc3nc4ccccc4n3Cc3ccc(F)cc3)CC1)CCCS2 [Compound 15]		0.16 mg/kg	0.31 mg/kg
Cc1nc2scc(C)n2c(=O)c1CCN1CCC(Nc2nc3cccnc3n2Cc2ccc(F)cc2)CC1 [Compound 7]		0.04 mg/kg	0.31 mg/kg
Cc1nc2nc(NCCN3CCC(Nc4nc5ccccc5n4Cc4ccc(F)cc4)CC3)ccc2[nH]1 [Compound 146, N-[2-[4-[[1-[(4-fluorophenyl)methyl]-1H-benzimidazol-2-yl]amino]-1-piperidinyl]ethyl]-2-methyl-1H-imidazo[4,5-b]pyridin-5-amine]		0.04 mg/kg	0.08 mg/kg
Cc1nc2ccccn2c(=O)c1CCN1CCC(Nc2nc3ccccc3n2Cc2cccs2)CC1 [Compound 52]	1.25 mg/kg	0.31 mg/kg	
Cl.Cl.Cl.Fc1ccc(Cn2c(NC3CCN(Cc4cn5c(n4)CNCC5)CC3)nc3ccccc32)cc1 [Compound 152, 1-[(4-fluorophenyl)methyl]-N-[1-[(5,6,7,8-tetrahydroimidazo[1,2-a]pyrazin-2-yl)methyl]-4-piperidinyl]-1H-benzimidazol-2-amine trihydrochloride]		0.08 mg/kg	0.63 mg/kg
Cc1nc2ccccn2c(=O)c1CCN1CCC(Nc2nc3cccnc3n2Cc2ccco2)CC1 [Compound 6]		0.08 mg/kg	0.63 mg/kg
c1csc(Cn2c(NC3CCN(CCNc4nc5cnccc5[nH]4)CC3)nc3ccccc32)c1 [Compound 117]		0.02 mg/kg	0.31 mg/kg
c1coc(Cn2c(NC3CCN(CCNc4nc5cnccc5[nH]4)CC3)nc3ccccc32)c1 [Compound 111]		0.02 mg/kg	0.08 mg/kg
Cc1nc2scc(C)n2c(=O)c1CCN1CCC(Nc2nc3cccnc3n2Cc2ccco2)CC1 [Compound 10]		0.08 mg/kg	0.16 mg/kg
Cn1c(=O)n(CCN2CCC(Nc3nc4ccccc4n3Cc3ccco3)CC2)c(=O)c2ccccc21 [Compound 34]		0.08 mg/kg	0.16 mg/kg
